Consider eight compounds from US20230167406A1, “COMPOSITIONS AND METHODS OF PROMOTING MYELINATION” (The Children's Medical Center Corporation, priority 2020, published 2023).

Each structure is given as a SMILES string. “Also recorded” adds a separate entry of the source. Structures can show the parent of a compound that is named as a salt.

Test [1] deals with activated microglia in injured optic nerves. Description: Microglia depletion in injured optic nerves (CD68 immunoreactivity). Format: in vivo, mouse. The following applies: systemic application (food chow). An excerpt:
FIG. 3G comprises representative images of optic nerves, from adult mice 2 weeks after unilateral optic nerve crush injury and with or without PLX3397 treatment, stained with antibodies against CD68. Scale bar: 40 μm.
FIG. 3H is a graph quantifying the CD68 immunoreactivity signal. […] mice per group. Scale bar: 40 μm. *, **, *** p<0.05, 0.01, 0.001, respectively.
(§1) Thus, it appears that microglia activation is required for injury-induced OPC proliferation.
For PDGFRα-CreER mice, Tamoxifen (100 mg/kg, p.o.) was administered for 5 days right before optic nerve crush. For OPC proliferation assays, BrdU (100 mg/kg, i.p.) was injected at 3 hours before sample collection. […]
(§2) Cryosections (12-μm thick) were permeabilized and blocked in blocking buffer (0.5% Triton X-100 and 5% normal goat serum in PBS) for 1 h at room temperature and overlaid with primary antibodies overnight at 4° C. […] For each biological sample, 3-5 sections of each optic nerve were imaged under 10× or 20×objectives for quantification. Positive cell numbers were then quantified manually using the Plugins/Analyze/Cell Counter function in ImageJ software. For fluorescent intensity analysis, the images were first converted to 8-bit depth in ImageJ software and then, the mean intensity value was calculated by the build-in function: Analyze/Measure.

The test system of test [2] is OPCs and their progenies in injured optic nerves. Description: OPC lineage tracing (CC1/Oligo1 staining of RTM+ cells) in PDGFRα-CreER/iRTM mice after optic nerve crush. It counts as in vivo, mouse.
Text: To trace the progenies of OPCs, a different reporter mouse line was utilized, namely PDGFRα-CreER (Kang et al., Neuron 68, 668-681, 2010) crossed with Rosa26-STOP-Tomato mice, or PDGFRα-CreER/iRTM mice (Arenkiel et al., 2011). Upon tamoxifen administration, Cre expression is induced in PDGFRα^+ OPCs, leading to RTM expression not only in these OPCs but also their differentiated progenies. To monitor their differentiation, two well-documented markers were used, namely CC1 and Oligo1. CC1 is a marker for all differentiated cells from OPCs. The translocation of Oligo1 from the nucleus to the cytoplasm has been implicated as a hallmark of late differentiation into myelinating oligodendrocytes. Therefore, with these immunohistochemistry assessments, these cells could be separated into three stages: un-differentiated OPCs (CC1^− and nuclear Oligo1), early differentiated OPCs (CC1+ and nuclear Oligo1) and mature oligodendrocytes (CC1^+ and cytoplasmic Oligo1) (FIG. 111).
Immediately prior to optic nerve crush, tamoxifen was injected into PDGFRα-CreER/iRTM mice in order to label pre-existing OPCs (Young et al., Neuron 77, 873-885, 2013). Then, the fate of labeled OPCs was examined by immunohistochemistry with anti-CC1 and anti-Oligo1 at 4 weeks after injury (FIG. 1I).
As the majority of OPC proliferation occurs in the first week after injury (FIG. 1), it was hypothesized that a delayed PLX3397 treatment at 2-4 weeks after injury could bypass their inhibition on proliferation, permitting assessment of its effects on OPC differentiation. To do this, a separate experiment was performed in which PLX3397 was administered from 2 to 4 weeks after injury in PDGFRα-CreER:iRTM mice as used in FIGS. 1G-1M, 3L.
For PDGFRα-CreER mice, Tamoxifen (100 mg/kg, p.o.) was administered for 5 days right before optic nerve crush. […] Pexidartinib (PLX 3397) was mixed in food chow at 290 mg/kg by LabDiet laboratory animal nutrition.
Test [3] relates to OPCs in injured optic nerves. Description: OPC proliferation by BrdU/GFP/Olig2 labeling in PDGFRα-H2B-GFP mice. It counts as in vivo, mouse. The following applies: PLX3397 from 7 days before crush, examined 14 days after injury. On the procedure:
FIG. 3I is a schematic of experiments to assess OPC proliferation with the treatment of PLX3397 (PLX) or its vehicle control (Vec) in PDGFRα-H2B-GFP mice. […]
as §1
For PDGFRα-CreER mice, Tamoxifen (100 mg/kg, p.o.) was administered for 5 days right before optic nerve crush. For OPC proliferation assays, BrdU (100 mg/kg, i.p.) was injected at 3 hours before sample collection. For drug screening assays, BrdU was injected daily from day 4 to day 10 post optic nerve crush. Each compound or the corresponding Vehicle was administered once daily for 4 weeks started from day 1 post optic nerve crush (Table 2). […]
as §2

For test [4], the system named is regenerated axons in injured optic nerves. Description: Electron microscopy of myelination of regenerated axons in injured optic nerves. The settings on record: 4 weeks after injury; for regenerated axons that became myelinated: Montelukast dpi1-28 and/or PLX3397 dpi15-28. It counts as in vivo, mouse.
Experimental: To do this, AAVs expressing osteopontin/IGF1/CNTF were injected into the vitreous bodies of PDGFRα-CreER:iRTM mice to activate the intrinsic regenerative ability of RGCs and optic nerve injury was performed in 2 weeks. These mice were then treated with Montelukast (for 4 weeks from dpi1 to dpi28) and/or PLX3397 (for two weeks during dpi 15-28).
Mice were perfused with 4% paraformaldehyde with 2.5% glutaraldehyde in 0.1 M sodium cacodylate buffer, pH 7.2. Optic nerves were dissected and fixed in the same fixative solution overnight. Samples were then processed by the Harvard EM core based on the following procedure: nerves were rinsed in PBS, postfixed in 1% OsO4 in PBS for 1 h, dehydrated in a graded ethanol series, infiltrated with propylene oxide, and embedded in Epon. Semithin sections were stained with toluidine blue, and ultrathin sections were stained with lead citrate. Ultrathin sections were taken under JEOL 1200EX-80 kV electron microscope. The number of myelinated axons per nerve was analyzed in ultrathin sections at magnification 3,000× to 20,000×.
The subject of test [5] is proliferating OPCs in injured optic nerves. Description: In vivo compound screening for OPC differentiation (BrdU+/CC1+ cells) after optic nerve crush. Further details: species or system mouse. The settings on record: wild type C57BL/6 mice; for number of BrdU+ and CC1+ double positive cells (OPC differentiation) in injured optic nerves: compound once daily for 4 weeks from day 1 post optic nerve crush, BrdU daily days 4-10; for pro-differentiation effect compared with the other screened compounds: 4 week treatment after optic nerve crush.

For test [6], the system named is OPCs distal to the optic nerve injury. Description: TNFα inhibitor treatment after optic nerve injury (BrdU/CC1/Olig2 staining, lineage reporter mice). It counts as in vivo, mouse. An excerpt: The morphology is very distinct from other treatments, such as GPR17 antagonist treatment (FIG. 5E).
The mark [7] stands for this setting: PDGFRα-CreER:iRTM mice, delayed treatment from 2 to 4 weeks after injury.
Setting [8] is: PDGFRα-CreER/iRTM mice, Montelukast treatment for 4 weeks.

In the case of `FC(F)(F)c1ccc(CNc2ccc(Cc3c[nH]c4ncc(Cl)cc34)cn2)cn1` [PLX3397, Pexidartinib], the “depletion of microglia in vivo (CD68)” value in test [1] was “depleted; also recorded: specifically deplete microglia”. Also, in test [2] (setting [7]), the “CC1+ cells” value is reported as “increased” and the “proportion of CC1+RTM+ cells expressing cytoplasmic Oligo1” value is given as 78%. Also, the “total numbers of OPCs” value in test [3] was “profoundly reduced”. The “regenerated axons that became myelinated” value in test [4] was “about 20%”.
Turning to `O=C(Nc1cccc2c(=O)cc(-c3nn[nH]n3)oc12)c1ccc(OCCCCc2ccccc2)cc1` [Pranlukast], in test [5], the “number of BrdU+ and CC1+ double positive cells (OPC differentiation) in injured optic nerves” value is given as “increased OPC differentiation but did not reach statistical significance”.
Consider `CN1C2CCC1CC(OC(c1ccccc1)c1ccccc1)C2` (stereo not shown) [benztropine mesylate, Benztropine mesylate], for which the entries for the “number of BrdU+ and CC1+ double positive cells (OPC differentiation) in injured optic nerves” value in test [5] and in test [5] (listed as benztropine) were “significantly increased” and “significantly increased OPC differentiation”, respectively.
As to `C=C(c1ccc(C(=O)O)cc1)c1cc2c(cc1C)C(C)(C)CCC2(C)C` [Bexarotene], the “number of BrdU+ and CC1+ double positive cells (OPC differentiation) in injured optic nerves” value in test [5] was “increased CC1^+ cells, albeit the increase did not reach statistical differences”.
Take `O=C1CCC(N2C(=O)c3ccccc3C2=O)C(=O)N1` (stereo not shown) [Thalidomide]: in test [6] (PDGFRα-CreER/iRTM lineage reporter mice, 2 to 4 weeks post-injury), the “differentiation of OPCs in lineage reporter mice” value is listed as “OPCs differentiated into mature myelinating oligodendrocytes”. In test [6] (administered from 2 weeks to 4 weeks post-injury), the “BrdU+/CC1+/Olig2+ cells distal to the injury” value is on record as “robust increase”.
`O=C(O)CCC(=O)O.O=C(O[C@H]1CN2CCC1CC2)N1CCc2ccccc2[C@@H]1c1ccccc1` [Solifenacin, Solifenacin succinate]: the “number of BrdU+ and CC1+ double positive cells (OPC differentiation) in injured optic nerves” value in test [5] is “significantly increased”; in test [5] (listed as solifenacin), “significantly increased OPC differentiation”.
For `CN1CCC[C@@H]1CCO[C@](C)(c1ccccc1)c1ccc(Cl)cc1.O=C(O)/C=C/C(=O)O` [clemastine, Clemastine fumarate], the “number of BrdU+ and CC1+ double positive cells (OPC differentiation) in injured optic nerves” value in test [5] is listed as “increased CC1^+ cells, albeit the increase did not reach statistical differences”.
In the case of `CC(C)(O)c1ccccc1CC[C@@H](SCC1(CC(=O)O)CC1)c1cccc(/C=C/c2ccc3ccc(Cl)cc3n2)c1` [Montelukast], in test [5], the “pro-differentiation effect compared with the other screened compounds” value is “strongest effect”; the “number of BrdU+ and CC1+ double positive cells (OPC differentiation) in injured optic nerves” value was “significantly increased”. Also, the “pro-differentiation effect compared with the other screened compounds” value in test [5] (listed as montelukast) was “strongest”. In addition, in test [2] (setting [8]), the “proportion of CC1+RTM+ cells with nuclear, but not cytoplasmic, Oligo1 immunoreactivity” value stood at 77% and the “total RTM+ cell numbers” value was “increased”. Also, in test [2] (PDGFRα-CreER/iRTM mice, Montelukast treatment for 4 weeks after optic nerve injury, 12% in vehicle-treated mice), the “proportion of RFP+ (RTM+) cells that became CC1+” value was 64%. Moreover, in test [4], the “thickness of myelin structures” value is reported as “much thinner than those after PLX treatment” and the “regenerated axons that became myelinated” value was “about 20%”.
